Results as given in US20140066362A1, “METHOD FOR TREATING INFECTIONS BY TARGETING MICROBIAL H2S-PRODUCING ENZYMES” (NEW YORK UNIVERSITY, priority 2011, published 2014).

Each compound was assayed on E. coli ΔsseA (3MST-deficient) strain. Settings: not given.
Type: cell-based

For O=P(O)(O)O [200 mM Sodium Phosphate pH 7, Sodium Phosphate], the “ΔsseA inhibition of growth” value was −497.

Same assay, conditions: Table 1; relative values of growth inhibition (negative numbers), ΔsseA vs wt E. coli

Compared with O=[N+]([O-])c1ccc(Cl)c([N+](=O)[O-])c1 [1-Chloro-2,4-dinitrobenzene], O=[N+]([O-])c1ccc(O)c([N+](=O)[O-])c1 [2,4-Dinitrophenol] is lower in “ΔsseA inhibition of growth” value: −221 for the first, −296 for the second.

First: CC(C)c1nc2nc(N)nc(N)c2nc1C(C)C [2,4-Diamino-6,7-diisopropylpteridine]
Second: Cn1c(=O)c2c(ncn2C)n(C)c1=O [Caffeine]
The “ΔsseA inhibition of growth” value of the first is lower: −429 for the first, −173 for the second.

First: Nc1c2ccccc2nc2ccccc12 [9-Aminoacridine]
Second: CN(C)CCC=C1c2ccccc2CCc2ccccc21 [Amitriptyline]
The “ΔsseA inhibition of growth” value of the first is higher: −142 for the first, −422 for the second.

Compared with CCCCC(CC)CNC(=N)NC(=N)NCCCCCCNC(=N)NC(=N)NCC(CC)CCCC (centres unmarked) [Alexidine], CCCCCCCCCCCC[N+](C)(C)C.[Br-] [Dodecyltrimethyl ammonium bromide] is lower in “ΔsseA inhibition of growth” value: −216 for the first, −225 for the second.

Compared with CN[C@@H]1[C@@H](O[C@H]2O[C@H](CO)[C@@H](N)[C@H](O)[C@H]2O)OC2C[C@@H](N)[C@@H](O[C@H]3[C@H](O)[C@@H](O)[C@H](N)C[C@@H]3N)OC2[C@@H]1O (some centres unmarked) [Apramycin], Nc1ccn([C@@H]2O[C@H](CO)[C@@H](O)[C@@H]2O)c(=O)n1 [Cytosine arabinoside] is lower in “ΔsseA inhibition of growth” value: −179 for the first, −281 for the second.

Compared with Cn1cnc([N+](=O)[O-])c1Sc1ncnc2nc[nH]c12 [Azathioprine], CCN1CCN(C(=O)N[C@@H](C(=O)N[C@@H]2C(=O)N3C(C(=O)O)=C(CSc4nnnn4C)CS[C@H]23)c2ccc(O)cc2)C(=O)C1=O [Cefoperazone] is higher in “ΔsseA inhibition of growth” value: −341 for the first, −159 for the second.

Compared with NC(CO)C(=O)NNCc1ccc(O)c(O)c1O (centres unmarked) [Benserazide], N[C@H](CO)C(=O)O [D-Serine] is lower in “ΔsseA inhibition of growth” value: −336 for the first, −398 for the second.

First: CN(CC[C@H](N)CC(=O)N[C@H]1C=C[C@H](n2ccc(N)nc2=O)O[C@@H]1C(=O)O)C(=N)N [Blasticidin S]
Second: CC1(C)S[C@@H]2[C@H](NC(=O)C(C(=O)O)c3ccccc3)C(=O)N2[C@H]1C(=O)O (some centres unmarked) [Carbenicillin]
The “ΔsseA inhibition of growth” value of the first is lower: −185 for the first, −164 for the second.

Compared with N#CC(C#N)=NNc1cccc(Cl)c1 [CCCP], O=c1ccc2ccccc2o1 [Coumarin] is higher in “ΔsseA inhibition of growth” value: −422 for the first, −243 for the second.

First: O=C1C2CC=CCC2C(=O)N1SC(Cl)(Cl)Cl (centres unmarked) [Captan]
Second: CC(=O)OCC1=C(C(=O)O)N2C(=O)[C@@H](NC(=O)Cc3cccs3)[C@H]2SC1 [Cephalothin]
The “ΔsseA inhibition of growth” value of the first is lower: −357 for the first, −160 for the second.

Compared with NC(=O)c1cc[n+](CC2=C(C(=O)O)N3C(=O)[C@@H](NC(=O)[C@@H](c4ccccc4)S(=O)(=O)[O-])[C@H]3SC2)cc1 [Cefsulodin], Cc1onc(-c2ccccc2Cl)c1C(=O)N[C@@H]1C(=O)N2[C@@H]1SC(C)(C)[C@@H]2C(=O)O [Cloxacillin] is higher in “ΔsseA inhibition of growth” value: −201 for the first, −182 for the second.

Compared with O=C(O)CCCc1ccc(N(CCCl)CCCl)cc1 [Chlorambucil], CN(C)CCCN1c2ccccc2Sc2ccc(Cl)cc21 [Chlorpromazine] is lower in “ΔsseA inhibition of growth” value: −177 for the first, −251 for the second.

First: O=C(O)C=Cc1ccccc1 [Cinnamic acid]
Second: CCCCCCCCCCCC[N+](C)(C)CCOc1ccccc1 [Domiphen bromide]
The “ΔsseA inhibition of growth” value of the first is higher: −204 for the first, −250 for the second.

Going from CN(C)c1ccc(C(=C2C=CC(=[N+](C)C)C=C2)c2ccc(N(C)C)cc2)cc1 [Crystal Violet] to CCN(CC)C(=S)SSC(=S)N(CC)CC [Disulfiram], the “ΔsseA inhibition of growth” value rises from −576 to −246.
